# Source: US20210255193A1, “LYSINE REACTIVE PROBES AND USES THEREOF” (The Scripps Research Institute, priority 2017, published 2021)
# Columns and labels:
# [1] = molecular target: T1, PFKP 6-phosphofructokinase type C (Homo sapiens, UniProt Q01813); experiment: competitive isoTOP-ABPP; assay type: binding; settings: for isoTOP-ABPP ratio (R) at liganded lysine Q01813_K688: 50 uM, in vitro, sol, 231
# T1 construct: isoTOP-ABPP experiments performed in cell lysates (in vitro); endogenous in cells
# T1 sequence (Q01813 1-784): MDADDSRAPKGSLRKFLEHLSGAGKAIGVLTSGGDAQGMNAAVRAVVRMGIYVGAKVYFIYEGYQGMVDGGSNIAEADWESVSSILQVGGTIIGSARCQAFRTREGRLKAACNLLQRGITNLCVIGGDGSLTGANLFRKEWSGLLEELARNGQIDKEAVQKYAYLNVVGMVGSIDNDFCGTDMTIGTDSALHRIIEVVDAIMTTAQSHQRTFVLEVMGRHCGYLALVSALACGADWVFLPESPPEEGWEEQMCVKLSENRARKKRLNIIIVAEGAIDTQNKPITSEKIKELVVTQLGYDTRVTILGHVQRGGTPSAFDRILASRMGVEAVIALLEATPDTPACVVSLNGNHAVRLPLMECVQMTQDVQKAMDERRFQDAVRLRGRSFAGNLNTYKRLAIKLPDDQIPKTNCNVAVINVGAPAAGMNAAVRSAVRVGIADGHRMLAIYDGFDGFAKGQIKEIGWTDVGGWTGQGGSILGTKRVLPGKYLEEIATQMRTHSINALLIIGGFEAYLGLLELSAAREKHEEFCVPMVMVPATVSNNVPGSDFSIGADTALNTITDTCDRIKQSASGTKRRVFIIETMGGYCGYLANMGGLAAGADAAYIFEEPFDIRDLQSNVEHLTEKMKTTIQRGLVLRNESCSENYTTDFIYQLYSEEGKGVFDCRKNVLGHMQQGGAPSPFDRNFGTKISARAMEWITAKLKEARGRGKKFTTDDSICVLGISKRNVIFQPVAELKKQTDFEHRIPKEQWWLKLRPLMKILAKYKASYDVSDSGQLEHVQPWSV
# Procedure: (§1) In vitro covalent fragment treatment for isoTOP-ABPP. All compounds were made up as solutions in DMSO (100×) and were used at a final concentration of 50 μM for activated esters and 100 μM for guanidinylating agents. For each profiling sample, 0.5 ml of lysate was treated with 5 μl of the 100× compound stock solution or 5 μl of DMSO. Samples were treated with activated esters for
# (§2) STP-alkyne labeling and click chemistry. For concentration-dependent reactivity measurements by isoTOP-ABPP, 0.5 ml proteome aliquots were treated at ambient temperature with 1 mM STP-alkyne 1 (5 μl of 100 mM stock in DMSO) and 0.1 mM STP alkyne 1 (5 μl of 10 mM stock in DMSO), respectively. For competitive isoTOP-ABPP, after in vitro fragment treatment (detailed above), the samples were labeled for 1 h at ambient temperature with 0.1 mM STP-alkyne 1 (5 μl of 10 mM stock in DMSO). Samples were conjugated by copper-mediated azide-alkyne cycloaddition (CuAAC) to either the light (1 mM STP-alkyne or fragment treated) or heavy (0.1 mM STP-alkyne or DMSO treated) TEV tags (10 μl of 5 mM stocks in DMSO, final concentration=100 μM) using tris(2-carboxyethyl)phosphine hydrochloride
# (§3) R value calculation and processing. The ratios of light and heavy MS1 peaks for each unique peptide were quantified with a CIMAGE software using default parameters (3 MS1 acquisitions per peak and signal to noise threshold set to 2.5). For reactivity measurements by isoTOP-ABPP, the R value was calculated from the ratio of MS1 peak areas, comparing the 1 mM STP alkyne sample (light TEV tag) with the 0.1 mM STP alkyne sample (heavy TEV tag). For competitive isoTOP-ABPP, the R value was calculated from the ratio of MS1 peak areas, comparing the DMSO treated sample (heavy TEV tag) with the compound treated sample (light TEV tag). […] Ratios for unique peptide entries are calculated for each experiment; overlapping peptides with the same modified lysine (for example, different charge states, MudPIT chromatographic steps or tryptic termini) are grouped together and the median ratio is reported as the final ratio (R). The peptide ratios reported by CIMAGE were further filtered to ensure the removal or correction of low-quality ratios in each individual data set. The quality filters applied were the following: removal of half tryptic peptides; for ratios with high standard deviations from the median (90% of the median or above) the lowest ratio was taken instead of the median; removal of peptides with R=20 and only a single MS2 event triggered during the elution of the parent ion; manual annotation of all the peptides with ratios of 20, removing any peptides with low quality elution profiles that remained after the previous curation steps (only done for competitive isoTOP-ABPP).
# (§4) Cross-data processing for fragment screening. For compound treated samples, biological replicates of the same condition were averaged, if the standard deviation was below 60% of the mean; otherwise, for lysines with at least one R value <4 for a particular compound, the lowest value of the ratio set was taken. For lysines, where all R values for a particular compound were ≥4, the average was reported. For peptides containing several possible modified lysines, the lysine with the highest number of quantification events was used for analysis and the remaining, redundant peptides were reported as alternative modification sites. Peptides included in the aggregate dataset (those used for further bioinformatics and statistical analyses) were required to have been quantified in 2 experiments for competitive isoTOP-ABPP. Lysines were categorized as liganded, if they had at least one ratio R≥4 (hit fragments). For liganded lysines with R=20 for all liganding events, lysines were required to have been quantified with R=20 in two separate experiments and were further required to have been quantified with R<20 in one additional experiment.
# [2] = molecular target: T2, HDHD3 Haloacid dehalogenase-like hydrolase domain-containing protein 3 (Homo sapiens, UniProt Q9BSH5); experiment: competitive isoTOP-ABPP; assay type: binding; settings: for isoTOP-ABPP ratio (R) at liganded lysine Q9BSH5_K15: 50 uM, in vitro, sol, 231
# T2 construct: isoTOP-ABPP experiments performed in cell lysates (in vitro); endogenous in cells; host or cells: soluble proteome of human cancer cell lines (MDA-MB-231; Ramos and Jurkat also prepared)
# T2 sequence (Q9BSH5 1-251): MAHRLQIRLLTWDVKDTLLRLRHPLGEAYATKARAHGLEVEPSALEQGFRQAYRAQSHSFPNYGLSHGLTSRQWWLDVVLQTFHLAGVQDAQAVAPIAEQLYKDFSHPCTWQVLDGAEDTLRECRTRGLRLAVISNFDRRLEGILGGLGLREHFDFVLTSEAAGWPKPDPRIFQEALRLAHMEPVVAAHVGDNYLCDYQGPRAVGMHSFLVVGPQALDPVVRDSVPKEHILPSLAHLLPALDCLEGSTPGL
# Procedure: as §1, §2, §3, §4
Compound,isoTOP-ABPP ratio (R) at liganded lysine Q01813_K688 [1],isoTOP-ABPP ratio (R) at liganded lysine Q9BSH5_K15 [2],"isoTOP-ABPP ratio, lysine Q01813_K688 ([1]; 50 uM_231_sol_in vitro)","isoTOP-ABPP ratio, lysine Q9BSH5_K15 ([2]; 50 uM_231_sol_in vitro)",other results
"O=C(Oc1ccc([N+](=O)[O-])cc1[N+](=O)[O-])c1ccc(Oc2ccccc2)cc1 [fragment 39, 2,4-Dinitrophenyl 4-phenoxybenzoate]",1.0,1.3,–,–,–
"O=C(Oc1ccc([N+](=O)[O-])cc1[N+](=O)[O-])c1ccccc1Nc1cccc(C(F)(F)F)c1 [fragment 40, 2,4-Dinitrophenyl 2-((3-(trifluoromethyl)phenyl)amino)benzoate]",1.0,0.9,–,–,–
"CC(C)(C)OC(=O)NCCCC(=O)Oc1ccc([N+](=O)[O-])cc1[N+](=O)[O-] [fragment 41, 2,4-Dinitrophenyl 4-((tert-butoxycarbonyl)amino)butanoate]",4.9,2.8,–,–,–
"O=C(Oc1ccc([N+](=O)[O-])cc1[N+](=O)[O-])C(c1ccccc1)(c1ccccc1)c1ccccc1 [fragment 42, 2,4-Dinitrophenyl 2,2,2-triphenylacetate]",1.0,0.9,–,–,–
"CC(=O)Oc1ccc([N+](=O)[O-])cc1[N+](=O)[O-] [fragment 43, 2,4-Dinitrophenyl acetate]",3.9,3.1,–,–,–
"N#Cc1ccc(C(=O)Oc2ccc([N+](=O)[O-])cc2[N+](=O)[O-])cc1 [fragment 44, 2,4-Dinitrophenyl 4-cyanobenzoate]",–,–,4.2,20.0,–
"O=C(CCc1ccc2c(c1)OCO2)Oc1ccc([N+](=O)[O-])cc1[N+](=O)[O-] [fragment 45, 2,4-Dinitrophenyl 3-(benzo[d][1,3]dioxol-5-yl)propanoate]",–,–,20.0,3.4,–
"O=C(ON1C(=O)CCC1=O)c1cc(C(F)(F)F)cc(C(F)(F)F)c1 [fragment 46, 3,5-Bis(trifluoromethyl)benzoic acid NHS ester]",–,–,1.7,1.4,–
"O=C(Oc1c(F)c(F)c(C(F)(F)F)c(F)c1F)c1cc(C(F)(F)F)cc(C(F)(F)F)c1 [fragment 47, 2,3,5,6-Tetrafluoro-4-(trifluoromethyl)phenyl 3,5-bis(trifluoromethyl)benzoate]",–,–,1.0,0.9,–
"O=C(Oc1c(F)c(F)cc(F)c1F)c1cc(C(F)(F)F)cc(C(F)(F)F)c1 [fragment 48, 2,3,5,6-Tetrafluorophenyl 3,5-bis(trifluoromethyl)benzoate]",–,–,1.4,1.0,–
"COC(=O)NC(=NC(=O)OCC1c2ccccc2-c2ccccc21)n1cccn1 [fragment 49, N-Methoxycarbonyl-N′-9-fluorenylmethoxycarbonyl-pyrazole-1-carboxamidine]",–,–,–,–,"isoTOP-ABPP ratio, lysine Q01813_K688 ([1]; 100 uM_231_sol_in vitro): 9.6; isoTOP-ABPP ratio, lysine Q9BSH5_K15 ([2]; 100 uM_231_sol_in vitro): 3.5"
"CC(C)(C)OC(=O)N=C(NC(=O)OC(C)(C)C)n1cccn1 [fragment 50, reference compound]",–,–,–,–,"isoTOP-ABPP ratio, lysine Q01813_K688 ([1]; 100 uM_231_sol_in vitro): 18.2; isoTOP-ABPP ratio, lysine Q9BSH5_K15 ([2]; 100 uM_231_sol_in vitro): 2.8"
"NC(=O)c1cc(C(F)(F)F)cc(C(F)(F)F)c1 [fragment 51, reference compound]",–,–,0.9,0.8,–
